Columns and labels:
Assay type in all cases: in vivo
[1] = test system: maize glutamine synthetase; test: Silencing of maize glutamine synthetase, qPCR of leaf samples and phenotype; conditions: dsRNA treated maize plants, 2-3 weeks after treatment
Method: The Zma-GS dsRNA molecule (SEQ ID NO 7:SEQ ID NO 8) used in this embodiment is a double stranded RNA version of SEQ ID NO 2. Methods for formulation of dsRNA and control solutions, plant growth conditions, and application of RNAi formulation were as described in the above example, with the exception that another control formulation was added with only Brassinosteroid at 0.1 micromolar.
Results were evaluated from leaf samples taken 2-3 weeks after treatment. Four plants were examined from each treatment group. […] Since glutamine synthetase is a natively expressed gene, qPCR analysis was performed to calculate silencing efficiency. qPCR was performed using the Applied Biosystems 7900HT Fast Real-Time PCR System. Silencing efficiency was calculated according to the publication Analysis of Relative Gene Expression Data Using Real-Time Quantitative PCR and the 2^−ΔΔCt Method. Methods (2001) 25:402-408.

NtPDS transcript = test: Silencing of NtPDS transcript in tobacco, qPCR and phenotype; conditions: leaves of dsRNA treated tobacco plants
Method: The tobacco gene encoding phytoene desaturase was evaluated for silencing using dsRNA constructs in combination with BR. […] The NtPDS dsRNA molecule (SEQ ID NO 10:SEQ ID NO 11) used in this embodiment is a double stranded RNA version of SEQ ID NO 4.
Similar to Example 3, once germinated and grown for 3-4 weeks, three tobacco plants were chosen for treatment for either the dsRNA or the control formulation. Here, the control formulation contained BR and water alone. […] As in Examples 2 and 3, the silencing efficiencies were calculated and are shown in the table below, where dsPDS is dsRNA from NtPDS.

NtFtsH transcript = test: Silencing of NtFtsH transcript in tobacco, qPCR and phenotype; conditions: leaves of dsRNA treated tobacco plants
Method: The tobacco gene encoding Filamentation temperature-sensitive H (NtFtsH) protease was evaluated for silencing using dsRNA constructs in combination with BR. […] The NtFtsH protease dsRNA molecule (SEQ ID NO 9:SEQ ID NO 10) used in this embodiment is a double stranded version of SEQ ID NO. 3.
Once germinated, tobacco plants were transplanted to new soil and grown for an additional 3-4 weeks. Three tobacco plants were chosen for treatment for either the dsRNA or the control formulation. The treatments were applied using methods similar to those described in Example 2. Here, the control formulation contained ZsGreen dsRNA. […] As in Example 2, the silencing efficiencies were calculated and are shown in the table below, where dsNtFtsH is dsRNA from NtFtsH protease and dsZsGreen is the dsRNA of ZsGreen: […]

“dsGS: Zma-GS dsRNA (SEQ ID NO 7:SEQ ID NO 8), double stranded RNA version of SEQ ID NO 2” was tested, and the phenotype [1] was “bleaching was observed”.

For “dsPDS: NtPDS dsRNA, double stranded RNA version of SEQ ID NO 4”, the phenotype (NtPDS transcript) was “bleaching phenotype was observed”.

B1: dsNtFtsH: NtFtsH protease dsRNA (SEQ ID NO 9:SEQ ID NO 10), double stranded version of SEQ ID NO. 3 (nucleic acid, listed as Nicotiana tabacum)
chain 1: CAAAUGGCAGUUGCACUUGGUGAAAGGGUUGCUGAGGAGGUUAUUUUUGGACAAGAUAACGUAACAACUGGGGCAUCUAACGAUUUCAUGCAAGUUUCACGAGUGGCAAGGCAGAUGGUUGAGAGAUUAGGGUUCAGCAAAAAGAUUGGACAAGUUGCCAUUGGAGGAGGUGGAGGAAAUCCUUUCCUAGGUCAACAGAUGUCAACCCAGAAAGACUACUCCAUGGCUACAGCCGAUGUGGUUGAUGCUGAAGUAAGGGAAUUGGUUGAAAGAGCAUAUGAAAGGGCAACAGAGAUUAUCACAACACACAUUGACAUCCUACACAAGCUUGCUCAGCUGUUGAUAGAGAAAGAAACUGUUGAUGGUGAAGAGUUCAUGAGCCUUUUCAUCGAUGG
chain 2: GUUUACCGUCAACGUGAACCACUUUCCCAACGACUCCUCCAAUAAAAACCUGUUCUAUUGCAUUGUUGACCCCGUAGAUUGCUAAAGUACGUUCAAAGUGCUCACCGUUCCGUCUACCAACUCUCUAAUCCCAAGUCGUUUUUCUAACCUGUUCAACGGUAACCUCCUCCACCUCCUUUAGGAAAGGAUCCAGUUGUCUACAGUUGGGUCUUUCUGAUGAGGUACCGAUGUCGGCUACACCAACUACGACUUCAUUCCCUUAACCAACUUUCUCGUAUACUUUCCCGUUGUCUCUAAUAGUGUUGUGUGUAACUGUAGGAUGUGUUCGAACGAGUCGACAACUAUCUCUUUCUUUGACAACUACCACUUCUCAAGUACUCGGAAAAGUAGCUACC
modifications: Sense strand of SEQIDNO3 (1)..(395); Complement of SEQIDNO9 (1)..(395)
For B1, the phenotype (NtFtsH transcript) was “bleaching phenotype was observed”.
